Source: patent US4755527A, “Aryl substituted aminomethyl benzene derivatives” (priority 1985, dated 1988)

test system: ventricular arrhythmias induced by ouabain (Ouabain dog); test: Antiarrhythmic activity in the Ouabain dog model (i.v. infusion); type: in vivo; details: Canis lupus familiaris; Ouabain dog, IV infusion; ED is the effective dose required to sustain normal sinus rhythm; read-out: Antiarrhythmic ED in Ouabain Dog
Method: The following examples describe the pharmacological evaluation of the compounds in accordance with the present invention. In particular, these examples describe the evaluation of antiarrhythmic activity in the Oubain dog model. […] The test compound was infused intravenously in saline at a rate of about 0.3 to about 5 mg/kg/min until normal sinus rhythm or toxicity occurred. Normal sinus rhythm was defined as 90-100% normal complexes over a 5 minute period.

| Structure (SMILES) | minimal effective dose [mg/kg] |
| --- | --- |
| CN(C(=O)c1ccccc1)c1cc(CN2CCCC2)c(O)c(CN2CCCC2)c1 [XXXIV] | 16 |
| O=C(Nc1cc(CN2CCCC2)c(O)c(CN2CCCC2)c1)c1ccc([N+](=O)[O-])cc1 [VII, N--(4-nitrobenzoyl)-3,5,-bis(N--pyrrolidinylmethyl)-4-hydroxyaniline] | 11 |
| O=C(Nc1cc(CN2CCCC2)c(O)c(CN2CCCC2)c1)c1cccc(C(F)(F)F)c1 [IX, N--(3-trifluoromethylbenzoyl)-3,5,-bis(N--pyrrolidinylmethyl)-4-hydroxyaniline] | 2.25 |
| O=C(Nc1cc(CN2CCCC2)c(O)c(CN2CCCC2)c1)c1cccc(Cl)c1 [XI, N--(3-chlorobenzoyl)-3,5,-bis(N--pyrrolidinylmethyl)-4-hydroxyaniline] | 3.75 |
| O=C(Nc1ccccc1)c1cc(CN2CCCC2)c(O)c(CN2CCCC2)c1 [Example XXXIII, N-([3,5-bis(pyrrolidinylmethyl)-4-hydroxy]benzoyl)-aniline] | 3.5 |
| O=C(NCc1cc(CN2CCCC2)c(O)c(CN2CCCC2)c1)c1cccc(Cl)c1 [XXVII, N--(3-chlorobenzoyl)-3,5-bis(pyrrolidinylmethyl)-4-hydroxybenzylamine] | 9.8 |
| Cc1cccc(C(=O)Nc2cc(CN3CCCC3)c(O)c(CN3CCCC3)c2)c1 [XV, N--(3-methylbenzoyl)-3,5,-bis(N--pyrrolidinylmethyl)-4-hydroxyaniline] | 5.3 |
| COc1ccc(C(=O)Nc2cc(CN3CCCC3)c(O)c(CN3CCCC3)c2)cc1 [VIII, N--(4-methoxybenzoyl)-3,5,-bis(N--pyrrolidinylmethyl)-4-hydroxyaniline] | 7.2 |
| O=C(Nc1cc(CN2CCOCC2)c(O)c(CN2CCOCC2)c1)c1ccccc1 [Example XXXI, N-(benzoy)3,5-bis(morpholinomethyl)-4-hydroxyaniline] | 16.5 |
| O=C(NCc1cc(CN2CCCC2)c(O)c(CN2CCCC2)c1)c1ccc(Cl)cc1 [XXIII, N--(4-chlorobenzoyl)-3,5-bis(pyrrolidinylmethyl)-4-hydroxybenzylamine] | 3.8 |
| Cc1ccccc1C(=O)Nc1cc(CN2CCCC2)c(O)c(CN2CCCC2)c1 [XVI, N--(2-methylbenzoyl)-3,5,-bis(N--pyrrolidinylmethyl)-4-hydroxyaniline] | 2 |
| O=C(NCc1cc(CN2CCCC2)c(O)c(CN2CCCC2)c1)c1cccc(C(F)(F)F)c1 [XXV, N--(3-trifluoromethylbenzoyl)-3,5-bis(pyrrolidinylmethyl)-4-hydroxybenzylamine] | 5.5 |
| O=C(Nc1cc(CN2CCCC2)c(O)c(CN2CCCC2)c1)c1c(Cl)cccc1Cl [XVII, N--(2,6,dichlorobenzoyl)-3,5,-bis(N--pyrrolidinylmethyl)-4-hydroxyaniline] | 2 |
| O=C(Nc1cc(CN2CCCC2)c(O)c(CN2CCCC2)c1)c1ccccc1C(F)(F)F [XII, N--(2-trifluoromethylbenzoyl)-3,5,-bis(N--pyrrolidinylmethyl)-4-hydroxyaniline] | 6.2 |
| COc1ccccc1C(=O)Nc1cc(CN2CCCC2)c(O)c(CN2CCCC2)c1 [XIV, N--(2-methoxybenzoyl)-3,5,-bis(N--pyrrolidinylmethyl)-4-hydroxyaniline] | 3 |

same assay, conditions: Ouabain dog, IV infusion; ED is the effective dose required to sustain normal sinus rhythm

| Structure (SMILES) | Antiarrhythmic ED in Ouabain Dog |
| --- | --- |
| O=C(Nc1cc(CN2CCCC2)c(O)c(CN2CCCC2)c1)c1ccc(Cl)cc1Cl [VI, N--(2,4,dichorobenzoyl)-3,5,-bis(N--pyrrolidinylmethyl)-4-hydroxyaniline] | low activity |
| O=C(Cc1cccs1)Nc1cc(CN2CCCC2)c(O)c(CN2CCCC2)c1 [Example XXI] | low activity |
| COc1cc(C(=O)Nc2cc(CN3CCCC3)c(O)c(CN3CCCC3)c2)cc(OC)c1OC [XVIII] | inactive |

test system: Guinea Pig Ileum; test: In vitro evaluation of anticholinergic activity in the isolated guinea pig ileum; design: species or system guinea pig (male Hartley); details: Cavia porcellus; 4 mg/L; inhibition of field-stimulated contractile tension; read-out: Anticholinergic Inhibition of Guinea Pig Ileum (% inhibition at 4 mg/L)
Method: The following examples describe the in vitro evaluation of anticholinergic activity in the isolated guinea pig ileum. Fasted, male Hartley guinea pigs (300-400 g) were killed by a blow to the head. […] One end of the ileal strip was impaled onto a platinum wire electrode; and the other end was tied to a stationary glass rod. Basal tension was set at 0.1-0.3 g and peak developed tension in response to field stimulation (100-150 V, 10 msec pulse duration, 0.2 Hz) was measured with a tension transducer.

| Structure (SMILES) | inhibition at 4 µg/mL [%] |
| --- | --- |
| O=C(Nc1cc(CN2CCCC2)c(O)c(CN2CCCC2)c1)c1ccc(Cl)cc1Cl [VI, N--(2,4,dichorobenzoyl)-3,5,-bis(N--pyrrolidinylmethyl)-4-hydroxyaniline] | 11 |
| O=C(Cc1cccs1)Nc1cc(CN2CCCC2)c(O)c(CN2CCCC2)c1 [Example XXI] | 13 |
| CN(C(=O)c1ccccc1)c1cc(CN2CCCC2)c(O)c(CN2CCCC2)c1 [XXXIV] | 16 |
| O=C(Nc1cc(CN2CCCC2)c(O)c(CN2CCCC2)c1)c1ccc([N+](=O)[O-])cc1 [VII, N--(4-nitrobenzoyl)-3,5,-bis(N--pyrrolidinylmethyl)-4-hydroxyaniline] | 24 |
| O=C(Nc1cc(CN2CCCC2)c(O)c(CN2CCCC2)c1)c1cccc(C(F)(F)F)c1 [IX, N--(3-trifluoromethylbenzoyl)-3,5,-bis(N--pyrrolidinylmethyl)-4-hydroxyaniline] | 62 |
| O=C(Nc1cc(CN2CCCC2)c(O)c(CN2CCCC2)c1)c1cccc(Cl)c1 [XI, N--(3-chlorobenzoyl)-3,5,-bis(N--pyrrolidinylmethyl)-4-hydroxyaniline] | 37 |
| O=C(NCc1cc(CN2CCCC2)c(O)c(CN2CCCC2)c1)c1cccc(Cl)c1 [XXVII, N--(3-chlorobenzoyl)-3,5-bis(pyrrolidinylmethyl)-4-hydroxybenzylamine] | 78 |
| Cc1cccc(C(=O)Nc2cc(CN3CCCC3)c(O)c(CN3CCCC3)c2)c1 [XV, N--(3-methylbenzoyl)-3,5,-bis(N--pyrrolidinylmethyl)-4-hydroxyaniline] | 32 |
| COc1ccc(C(=O)Nc2cc(CN3CCCC3)c(O)c(CN3CCCC3)c2)cc1 [VIII, N--(4-methoxybenzoyl)-3,5,-bis(N--pyrrolidinylmethyl)-4-hydroxyaniline] | 24 |
| O=C(Nc1cc(CN2CCOCC2)c(O)c(CN2CCOCC2)c1)c1ccccc1 [Example XXXI, N-(benzoy)3,5-bis(morpholinomethyl)-4-hydroxyaniline] | 37 |
| O=C(NCc1cc(CN2CCCC2)c(O)c(CN2CCCC2)c1)c1ccc(Cl)cc1 [XXIII, N--(4-chlorobenzoyl)-3,5-bis(pyrrolidinylmethyl)-4-hydroxybenzylamine] | 56 |
| Cc1ccccc1C(=O)Nc1cc(CN2CCCC2)c(O)c(CN2CCCC2)c1 [XVI, N--(2-methylbenzoyl)-3,5,-bis(N--pyrrolidinylmethyl)-4-hydroxyaniline] | 9.4 |
| COc1cc(C(=O)Nc2cc(CN3CCCC3)c(O)c(CN3CCCC3)c2)cc(OC)c1OC [XVIII] | 5.9 |
| O=C(NCc1cc(CN2CCCC2)c(O)c(CN2CCCC2)c1)c1cccc(C(F)(F)F)c1 [XXV, N--(3-trifluoromethylbenzoyl)-3,5-bis(pyrrolidinylmethyl)-4-hydroxybenzylamine] | 72 |
| O=C(Nc1cc(CN2CCCC2)c(O)c(CN2CCCC2)c1)c1c(Cl)cccc1Cl [XVII, N--(2,6,dichlorobenzoyl)-3,5,-bis(N--pyrrolidinylmethyl)-4-hydroxyaniline] | 14.3 |
| O=C(Nc1cc(CN2CCCC2)c(O)c(CN2CCCC2)c1)c1ccccc1C(F)(F)F [XII, N--(2-trifluoromethylbenzoyl)-3,5,-bis(N--pyrrolidinylmethyl)-4-hydroxyaniline] | 0 |
| COc1ccccc1C(=O)Nc1cc(CN2CCCC2)c(O)c(CN2CCCC2)c1 [XIV, N--(2-methoxybenzoyl)-3,5,-bis(N--pyrrolidinylmethyl)-4-hydroxyaniline] | 31 |
